The subject of series [1] is common mosquitoes (Culex pipiens pallens). As to the kind of experiment: Biological test 6: mosquito larvae in treated water. It is filed as in vivo. The conditions noted are these: 3.5 ppm active ingredient in water, last-instar larvae, after one day; 1440 min. On the procedure: 0.7 ml of aqueous emulsion, obtained by diluting emulsifiable concentrate prepared for each of the present compounds according to the formulation example 1 was added to 100 ml of ion-exchanged water (concentration of active ingredient : 3.5 ppm). Twenty last-instar larvae of common mosquitoes (Culex pipiens pallens) were left in the water. After one day, the mortality of the common mosquitoes was examined.

Series [2] relates to southern corn rootworm (Diabrotica undecimpunctata howardi). Nature of the series: Biological test 3: treated filter paper with eggs and sprouting corn. The conditions noted are these: 50 ppm aqueous emulsion, after 8 days.
The subject of series [3] is German cockroaches (Blattella germanica). Nature of the series: Biological test 5: treated filter paper with sucrose bait, cockroaches low sensitive to pyrethroids. The conditions noted are these: 500 ppm aqueous emulsion, male cockroaches low sensitive to pyrethroids, after six days; 8640 min.
Series [4] concerns webbing clothes moth (Tineola bisselliella). Nature of the series: Biological test 13: volatile agent hung in cup with webbing clothes moth larvae. It is filed as in vivo. The conditions noted are these: volatile agent (100 µg on filter paper), 25 °C for 1 week; for mortality: 10080 min. How it is done:
A wool muslin fabric (2 cm × 2 cm in size) was placed on the bottom of a polyethylene cup (bottom diameter : 10 cm, opening part diameter : 12.5 cm, height : 9.5 cm, volume : 950 cm^3 ). Ten middle instar larvae of webbing clothes moth (Tineola bisselliella) were put in the cup and each of the volatile agents prepared according to the formulation example 14 was hung from the cap in the interior of the cup. After standing at 25 °C for 1 week, the cup was opened, and the mortality and the degree of damage of the wool muslin fabric by the moths were examined (two replicate).

Series [5] concerns common mosquitoes (Culex pipiens pallens). Nature of the series: Biological test 8: mosquito-coil in glass chamber, knock-down. Format: in vivo. The conditions noted are these: 1.0 g of 0.3 % mosquito-coil, 0.34 m^3 chamber, after 15 minutes. How it is done: Mosquito-coil containing the present compound in an amount of 0.3 % was prepared according to the formulation example 10 for the present compounds. Ten female common mosquitoes (Culex pipiens pallens) were left in a glass chamber (70 cm × 70 cm × 70 cm : 0.34 m^3) and 1.0 g of 0.3 % mosquito-coil having both ends lit was placed in the glass chamber. After 15 minutes, the rate of knocked-down mosquitoes was examined.

In series [6] the test system is houseflies (Musca domestica). As to the kind of experiment: Biological test 10: vapour exposure over treated aluminum plate, houseflies. Format: in vivo. The conditions noted are these: 0.64 ml of 0.05 (w/v) % acetone solution, no direct contact, 25 °C for 120 minutes, after 24 hours. How it is done: (§1) After 0.64 ml of a 0.05 (w/v) % acetone solution of the present compounds was dropped into an aluminum plate (bottom diameter : 7 cm), acetone was air-dried. Ten female houseflies (Musca domestica) were left in a polyethylene cup (diameter : 9 cm; depth : 4.5 cm) and the cup was sealed with a 16-mesh nylon net to prevent direct contact of the houseflies with the compound. The cup was placed upside down on the aluminum plate at 25 °C for 120 minutes. The cup was then removed from the aluminum plate, and water and feed were given to the houseflies. After 24 hours, the percent moribund was examined (two replicate).

Series [7] has as its system webbing clothes moth (Tineola bisselliella). As to the kind of experiment: Biological test 12: topical application to webbing clothes moth larvae. Format: in vivo. The conditions noted are these: 3 µg / insect, after 7 days. How it is done: Each of the present compounds diluted with acetone to a predetermined concentration was applied to ten middle instar larvae of webbing clothes moth (Tineola bisselliella) at the central part of the back so as to give the active ingredient in a dose of 3 µg / insect. A wool muslin fabric (2 cm × 2 cm in size) was given to the webbing clothes moths as the food. After 7 days, the mortality and the degree of damage of the wool muslin fabric by the moths were examined (two replicate).

In series [8] the test system is common mosquitoes (Culex pipiens pallens). Nature of the series: Biological test 7: oil solution sprayed in glass chamber, knock-down. It is filed as in vivo. Particulars: 0.7 ml of 0.1 % oil solution sprayed, 0.34 m^3 chamber, after 15 minutes. How it is done:
Ten female common mosquitoes (Culex pipiens pallens) were left in a glass chamber (70 cm × 70 cm × 70 cm : 0.34 m^3). 0.7 ml of 0.1 % oil solution prepared for each of the present compounds according to the formulation example 7 was sprayed with a spray gun at 0.8 atmospheric pressure. After 15 minutes, the rate of knocked-down mosquitoes was examined.

Series [9] relates to brown planthopper (Nilaparvata lugens). As to the kind of experiment: Biological test 2: rice plant stalk dipped in emulsion. It is filed as in vivo. Particulars: 500 ppm aqueous emulsion, larvae, after 6 days. On the procedure:
A stalk of a rice plant was dipped for one minute in a 500 ppm aqueous emulsion obtained by diluting each emulsifiable concentrate of the present compounds prepared according to the formulation example 1. The rice plant stalk was air-dried and placed in a polyethylene cup (diameter : 5.5 cm) where filter paper (diameter : 5.5 cm) impregnated with 1 ml of water was put. Approximately 30 larvae of brown planthopper (Nilaparvata lugens) were put in the polyethylene cup. After 6 days, the mortality of the larvae was examined.

Series [10] deals with tobacco cutworm (Spodoptera litura). As to the kind of experiment: Biological test 1: artificial bait impregnated with emulsion. Particulars: 500 ppm emulsion, 4-instar larvae, after 6 days.
Series [11] has as its system webbing clothes moth (Tineola bisselliella). As to the kind of experiment: Biological test 14: persistence of treated filter paper in cardboard box, webbing clothes moth larvae. Format: in vivo. Details: key to degree of damage: -: no damage; +: slight damage; ++: heavy damage; +++: severe damage. Particulars: 36 mg on filter paper. How it is done:
A filter paper (3.2 cm × 3.2 cm in size) treated with 36 mg of each of the present compounds and two wool muslin fabrics (25 cm × 25 cm in size) were hung down at the upper part of a corrugated cardboard box (29 cm × 29 cm × 29 cm in size). After standing at 25 °C and a humidity of 60 % for 1 week, two tea-strainer balls holding 7 to 10 middle instar larvae of webbing clothes moth (Tineola bisselliella) and one piece of wool muslin cloth (2 cm × 2 cm in size) were hung down at the upper part of the box. The box was closed with a lid. After one week, the box was opened, and the percent moribund and the degree of damage of the wool muslin cloth by the moths were examined. The same tests was repeated 2 weeks, 3 weeks and 5 weeks after the treatment to examine the persistance of the present compound. The degree of damage was represented by "-" in no damage, " + " in slight damage, " ++ " in heavy damage and "+++ " in severe damage.

The test system of series [12] is houseflies (Musca domestica). Nature of the series: Biological test 4: treated filter paper with sucrose bait, houseflies low sensitive to pyrethroids. Particulars: 500 ppm aqueous emulsion, female houseflies low sensitive to pyrethroids, after one day; 1440 min.
For series [13], the system named is houseflies (Musca domestica). Nature of the series: Biological test 9: topical application of acetone solution to houseflies. Format: in vivo. The conditions noted are these: 5 µg / one housefly, after 24 hours. How it is done: After 24 hours, the percent moribund was examined (two replicate).
The subject of series [14] is common mosquitoes (Culex pipiens pallens). As to the kind of experiment: Biological test 11: vapour exposure over treated aluminum plate, mosquitoes. Format: in vivo. Particulars: 0.64 ml of 0.05 (w/v) % acetone solution, no direct contact, 25 °C for 120 minutes, after 24 hours. How it is done:
as §1, with “common mosquitoes (Culex pipiens pallens)” for “houseflies (Musca domestica)”, “mosquitoes” for “houseflies”, “mosquitoes.” for “houseflies.”, “mortality” for “percent moribund”

A further series concerns rats. Particulars: male 7-week old rats, into the stomach in corn oil, after 7 days. How it is done:
After subjecting the rats to a twenty-hour fasting, 0.1 ml of the diluted solution per 10g weight was forcibly applied into the stomach of four male 7-week old rats. The rats were given food and water four hours after the application and thereafter regularly fed and watered, and kept in a cage. After 7 days, the mortality was examined for the rats and LD50 was calculated.

Bounds are passed on as bounds.

For `CCc1ccc(COC(=O)[C@@H]2[C@H](/C=C(\Cl)C(F)(F)F)C2(C)C)o1` (racemic) [present compound (2), 5-ethyl-2-furfuryl (1RS,cis)-3-(Z-2-chloro-3,3,3-trifluoroprop-1-enyl)-2,2-dimethylcyclopropanecarboxylate], the mortality in series [1] was at least 90%; in [3] it was 100%; in series [4], 100%; in [7] it was 100%; in series [9], at least 90%; in series [10], 100%. Further, the mortality in [12] and in series [14] was 100% each time. The “mortality of the hatched larvae and eggs” value in [2] is reported as 100%. Further, the “degree of damage of the wool muslin fabric” value in [4] and in [7] was “no damage” in each case. Further, the “rate of knocked-down mosquitoes” value in series [5] is 100%; in series [8] it was at least 90%. For the same molecule, the percent moribund in [6], in series [11] (After 1 week), in [11] (After 2 weeks), in series [11] (After 3 weeks), in series [11] (After 5 weeks) and in series [13] was 100% throughout. Also, the degree of damage result in series [11] (After 1 week), in series [11] (After 2 weeks), in series [11] (After 3 weeks) and in series [11] (After 5 weeks) was “-” each time.

Regarding `CCCc1ccc(COC(=O)[C@@H]2[C@H](/C=C(\Cl)C(F)(F)F)C2(C)C)o1` (racemic) [present compound (3), 5-propyl-2-furfuryl (1RS,cis)-3-(Z-2-chloro-3,3,3-trifluoroprop-1-enyl)-2,2-dimethylcyclopropanecarboxylate], the mortality in [1] is at least 90%; in [3], 100%; in series [4], 100%; in series [7], 100%; in series [9], at least 90%; in series [10], 100%. Moreover, the mortality in series [12] and in [14] was 100% in each case. Besides, the “mortality of the hatched larvae and eggs” value in series [2] is 100%. Moreover, the “degree of damage of the wool muslin fabric” value in [4] and in series [7] was “no damage” in each case. The entries for the “rate of knocked-down mosquitoes” value in [5] and in series [8] were 100% and at least 90%, respectively. The percent moribund in [6], in series [11] (After 1 week), in [11] (After 2 weeks), in series [11] (After 3 weeks), in [11] (After 5 weeks) and in series [13] was 100% each time. The degree of damage entry in series [11] (After 1 week), in series [11] (After 2 weeks), in [11] (After 3 weeks) and in series [11] (After 5 weeks) was “-” in each case.

`C=CCc1ccc(COC(=O)[C@@H]2[C@H](/C=C(\Cl)C(F)(F)F)C2(C)C)o1` (racemic) [present compound (4), 5-allyl-2-furfuryl (1RS,cis)-3-(Z-2-chloro-3,3,3-trifluoroprop-1-enyl)-2,2-dimethylcyclopropanecarboxylate]: the mortality is at least 90% in [1]; 100% in [3]; 100% in series [4]; 100% in series [7]; at least 90% in series [9]; 100% in series [10]. The mortality in series [12] and in [14] was 100% throughout. Besides, the “mortality of the hatched larvae and eggs” value in [2] was 100%. The “degree of damage of the wool muslin fabric” value in [4] and in series [7] was “no damage” each time. In addition, the “rate of knocked-down mosquitoes” value in [5] is listed as 100%; in series [8] it was at least 90%. Further, the percent moribund in [6], in series [11] (After 1 week), in [11] (After 2 weeks), in series [11] (After 3 weeks), in [11] (After 5 weeks) and in series [13] was 100% throughout. Moreover, the degree of damage result in [11] (After 1 week), in series [11] (After 2 weeks), in [11] (After 3 weeks) and in [11] (After 5 weeks) was “-” in each case.

On to `CC1(C)C(/C=C(\Cl)C(F)(F)F)C1C(=O)OCc1coc(Cc2ccccc2)c1` (centres unmarked) [A, reference compound], for which, in the series with rats, the LD50 entry was “less than 50 mg/kg”. Also, the degree of damage entry in series [11] (After 1 week), in series [11] (After 2 weeks), in [11] (After 3 weeks) and in series [11] (After 5 weeks) was “+++” each time. For the same molecule, the percent moribund in series [11] (After 1 week) amounted to 0%; in [11] (After 2 weeks), 0%; in [11] (After 3 weeks), 5%; in series [11] (After 5 weeks), 5%.

As for `CC1(C)C(/C=C(\Cl)C(F)(F)F)C1C(=O)OCc1ccc(C(F)F)o1` (centres unmarked) [B, reference compound], the degree of damage entry in series [11] (After 1 week), in [11] (After 2 weeks), in series [11] (After 3 weeks) and in series [11] (After 5 weeks) was “+++” in each case. Further, the percent moribund was found to be 50% in series [11] (After 1 week), 33% in series [11] (After 2 weeks), 53% in series [11] (After 3 weeks) and 42% in series [11] (After 5 weeks).

For the origin of these results see patent EP0989125B1, “Pesticidal furylmethyl cyclopropanecarboxylates” (Sumitomo Chemical Company, Limited, priority 1998, dated 2000).
